In US20260250318A1, “COMPOSITIONS AND METHODS FOR CROSSING THE BLOOD BRAIN BARRIER” (VOYAGER THERAPEUTICS, INC., priority 2022, published 2026):

Experiments:
Conditions in all cases: synthetic library passage 3, intravenous, relative to wild-type AAV9
[1] = tested on: brain; test: NGS fold enrichment of synthetic library (passage 3) in BALB/c mice, first cross-species screen; format: in vivo
Outline: (§1)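 Fold enrichment versus wild-type AAV9 was derived by NGS of RT-PCR-amplified RNA from nervous tissue, collected e.g. 28 days after IV dosing […]. The library (passage 3) was given to two NHPs aged 2-4 years and to 6-8-week BALB/c and C57Bl/6 mice (n=3 each).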

[2] = tested on: brain, spinal cord, and DRG of the NHPs; test: NGS fold enrichment of synthetic library (passage 3) in NHPs, first cross-species screen; format: in vivo, cynomolgus macaques (Macaca fascicularis)
Outline: as §1

[3] = tested on: brain; test: NGS fold enrichment of synthetic library (passage 3) in C57Bl/6 mice, first cross-species screen; format: in vivo
Outline: as §1

[4] = RNA from brain of BALB/c mice, NGS
[5] = RNA from spinal cord of NHPs, NGS
[6] = RNA from brain of C57Bl/6 mice, NGS

Sequence	Fold enrichment over AAV9 in the brain of Mice (BALB/c) [1, 4]	Fold enrichment over AAV9 in the brain of NHPs ([2]; RNA from brain of NHPs, NGS)	Fold enrichment over AAV9 in the spinal cord of NHPs [2, 5]	Fold enrichment over AAV9 in the brain of Mice (C57Bl/6) [3, 6]	Fold enrichment over AAV9 in the brain of Mice (BALB/c) ([1]; RNA NGS, brain of BALB/c mice)	Fold enrichment over AAV9 in the brain of NHPs ([2]; RNA NGS, brain of NHPs)	Fold enrichment over AAV9 in the spinal cord of NHPs ([2]; RNA NGS, spinal cord of NHPs)	Fold enrichment over AAV9 in the brain of Mice (C57Bl/6) ([3]; RNA NGS, brain of C57Bl/6 mice)
GSGQNQRASILVQT	0.569 fold	1.162 fold	3.632 fold	0.531 fold				
GSGQNQRATLSNQT	0.723 fold	1.339 fold	1.084 fold	0.947 fold				
GSGQNQRAVLNDQT	0.259 fold	1.242 fold	3.023 fold	0.556 fold				
GSGQNQRGALATQT					0.891 fold	1.722 fold	1.117 fold	0.899 fold
GSGQNQRLHGVDQT	0.341 fold	1.318 fold	4.655 fold	0.459 fold				
GSGQNQRSSGGVQT					1.165 fold	1.723 fold	2.056 fold	1.805 fold
GSGQNQRTMVATQT	0.554 fold	1.130 fold	1.122 fold	0.649 fold				
GSGQNQRVSNSQQT					0.985 fold	2.146 fold	0.492 fold	1.086 fold
GSGQNQSHYPSQQT	0.402 fold	1.228 fold	4.315 fold	0.644 fold				
GSGQNQSQNHLQQT					0.772 fold	1.825 fold	0.600 fold	1.063 fold
GSGQNQYLRLELQT					0.839 fold	1.101 fold	0.000 fold	0.416 fold
GSGQNQYSIPVAQT					0.297 fold	1.891 fold	1.194 fold	0.511 fold
GSGQNQYSQSSMQT					0.309 fold	1.494 fold	4.278 fold	0.375 fold
GSGQNQYSSTNPQT					0.535 fold	1.542 fold	2.251 fold	0.544 fold
GSGQNRAHAFLQQT					1.271 fold	1.795 fold	0.000 fold	1.200 fold
GSGQNRAQIGTQQT	0.654 fold	1.138 fold	0.469 fold	0.776 fold				

Sequence	Fold enrichment over AAV9 in the brain of Mice (BALB/c) [1, 4]	Fold enrichment over AAV9 in the brain of NHPs ([2]; RNA from brain of NHPs, NGS)	Fold enrichment over AAV9 in the spinal cord of NHPs [2, 5]	Fold enrichment over AAV9 in the brain of Mice (C57Bl/6) [3, 6]	Fold enrichment over AAV9 in the brain of Mice (BALB/c) ([1]; RNA NGS, brain of BALB/c mice)	Fold enrichment over AAV9 in the brain of NHPs ([2]; RNA NGS, brain of NHPs)	Fold enrichment over AAV9 in the spinal cord of NHPs ([2]; RNA NGS, spinal cord of NHPs)	Fold enrichment over AAV9 in the brain of Mice (C57Bl/6) ([3]; RNA NGS, brain of C57Bl/6 mice)
GSGQNRAQSRFQQT					1.788 fold	3.043 fold	0.000 fold	0.619 fold
GSGQNRGISISQQT					0.566 fold	1.057 fold	2.166 fold	0.686 fold
GSGQNRKPASFAQT					1.061 fold	3.204 fold	0.000 fold	0.892 fold
GSGQNSGVHFNQQT	0.377 fold	1.268 fold	0.587 fold	0.871 fold				
GSGQNSYSHTSQQT					0.658 fold	1.765 fold	2.262 fold	1.130 fold
GSGQNTGHLTMQQT					0.595 fold	1.114 fold	0.078 fold	1.026 fold
GSGQNTGQHMMQQT					0.917 fold	1.090 fold	1.058 fold	1.147 fold
GSGQNTRLQLGQQT					0.234 fold	1.452 fold	1.747 fold	0.181 fold
GSGQNVSMQVNQQT	0.251 fold	1.341 fold	0.000 fold	0.357 fold				
GSGQNVSSVHRQQT					0.271 fold	1.045 fold	0.712 fold	0.383 fold
GSGQNWPALKGQQT	1.222 fold	1.284 fold	2.031 fold	1.101 fold				
GSGQPRSTGINQQT					0.542 fold	1.061 fold	0.693 fold	0.650 fold
GSGQPVLSISNQQT					0.282 fold	1.586 fold	2.695 fold	0.390 fold
GSGQPYSTGLNQQT					0.376 fold	1.519 fold	1.403 fold	0.612 fold
GSGQQLSITPNQQT					0.201 fold	1.979 fold	10.280 fold	0.845 fold
